From patent publication US8138357B2, “Compounds and their salts specific to the PPAR receptors and the EGF receptors and their use in the medical field” (Giuliani International Limited, priority 2005, dated 2012)
“Also recorded” adds a separate entry of the source.

Tests used:
PPARγ [1] = molecular target: T1, PPARγ (Homo sapiens, UniProt P37231); test: PPARγ activation, PPRE (2XCYP) luciferase reporter in transfected HT-29 STD cells (Example 8); type: cell-based; settings: 30 mM, 24 hours, HT-29 STD transfected with 2XCYP
T1 construct: HT-29 STD cells were transiently transfected using the Effectene™ transfection reagent; endogenous in cells; host or cells: HT-29 STD (human colon carcinoma)
T1 sequence (P37231 1-505): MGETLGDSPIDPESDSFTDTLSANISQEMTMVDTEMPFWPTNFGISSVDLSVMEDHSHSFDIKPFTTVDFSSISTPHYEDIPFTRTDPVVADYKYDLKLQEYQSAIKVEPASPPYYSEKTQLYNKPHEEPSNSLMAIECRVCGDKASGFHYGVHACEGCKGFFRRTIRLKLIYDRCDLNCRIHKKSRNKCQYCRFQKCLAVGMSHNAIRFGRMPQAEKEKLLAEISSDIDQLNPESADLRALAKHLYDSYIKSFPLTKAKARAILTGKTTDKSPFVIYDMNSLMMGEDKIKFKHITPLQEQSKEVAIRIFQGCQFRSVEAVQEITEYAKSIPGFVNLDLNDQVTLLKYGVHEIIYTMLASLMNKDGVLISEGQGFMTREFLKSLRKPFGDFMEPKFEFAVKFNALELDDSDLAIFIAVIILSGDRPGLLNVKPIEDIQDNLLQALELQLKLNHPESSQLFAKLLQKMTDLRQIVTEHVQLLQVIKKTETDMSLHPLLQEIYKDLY
Experimental: HT-29 STD cells were transiently transfected using the Effectene™ transfection reagent (Qiagen™) according to instructions from the manufacturer. To test PPARγ activation, we performed transfection with 500 ng of a minimal promoter construct containing two copies of PPRE obtained from the cytochrome p450 4A (2XCYP) (1). The renilla luciferase plasmid ([…]) was also transfected as an internal control for monitoring transfection efficiency and for normalizing the firefly luciferase activity. Transfected cells were left for 48 hours incubation at 37° C. […] The pH of the drug solutions was adjusted to 7.4 with NaOH. Total cell extracts were prepared using the Passive Lysis Buffer (Promega™, Madison, Wis.). Luciferase activity was assayed in 20 μl of the extract using the Promega™ Dual Luciferase assay system according to the manufacturer's protocol. Transfections were assayed in triplicate in at least three separate experiments. The luciferase activity was expressed as fold of the activity obtained in cells treated with the different molecules divided by luciferase activity from non-stimulated cells.

PPARγ [2] = test: PPARγ protein expression by western blot in HT-29 cells; type: cell-based, human; settings: 30 mM, 24 hours, HT-29, relative to β-actin
Experimental: The total proteins were obtained by cell homogenization in an extraction buffer consisting of PBS with 2% Triton™, Phenyl Methyl Sulphonyl Fluoride (PMSF) 100 mM and a classical protease inhibitor cocktail (2). The total proteins were then separated by polyacrylamide gel electrophoresis and electroblotted. Polyvinylidendifluoride (PVDF) membranes were incubated overnight with rabbit polyclonal primary antibody directed against PPARγ (dilution 1/500, TEBU, Le Perray en Yveline, France). β-actin was detected using a rabbit monoclonal primary antibody diluted at 1/10,000 (Sigma). Immunodetection with a secondary peroxidase-conjugated antibody (1/1000, Dako™, Trappes, France) and chemiluminescence was performed according to the manufacturer's protocol (ECL™, Amersham Pharmacia Biotech™, Orsay, France). Optical density values of PPARγ were given for each condition in proportion to the quantity of the internal control β-actin in the same sample (2).

HT-29 STD cells [3] = test: Cell proliferation by nuclear Ki-67 immunostaining; type: cell-based; settings: Homo sapiens, 30 mM, 24 h, compared to untreated cells, read-out: inhibition of cell proliferation (Ki-67 staining)
Experimental: After 24 h of culture, HT-29 STD cells were treated during 24 h with the new molecules 13, 14, 17, 26 and 31, at 30 mM. […] The pH of the drug solutions was adjusted to 7.4 with NaOH. Cells were fixed in PFA 4%, permeabilized in PBS containing 0.1% Triton X-100™ at 4° C. and then incubated with goat normal serum and blocking buffer (1% BSA in PBS) to minimize non-specific adsorption of the antibody. Cell proliferation was assessed by a nuclear Ki-67 staining using mouse monoclonal primary antibody directed against Ki-67 (dilution 1:50 overnight; ZYMED™ Clinisciences™, Montrouge, France). […] Nuclei were stained with Hoescht 33342 solution (0.125 mg/mL) (Sigma-Aldrich™) and visualized under a fluorescence microscope (Leica™, Bensheim, Germany). Negative controls consisted of staining with a non-specific mouse serum instead of the specific antibody. Counts of at least 500 cells/sample were systematically performed blindly in one experiment. The results were expressed as the mean±SEM of the number of stained cells.

HT-29 STD cells [4] = test: Detection of apoptosis by TUNEL assay; type: cell-based, human; settings: 30 mM, 24 h
Experimental: After 24 h of culture, HT-29 STD cells were treated during 24 h with the new molecules 13, 14, 17, 26 and 31, at a concentration of 30 mM. […] The pH of the drug solutions was adjusted to 7.4 with NaOH. Cells undergoing apoptosis were identified by enzymatic labelling of DNA strands using a terminal transferase dUTP nick end labelling assay (TUNEL assay, Roche Diagnostics™, Meylan, France). Counts of at least 500 cells/sample were systematically performed blindly in one experiment. The results were expressed as the mean±SEM of the number of stained cells.

DLD-1 cells = test: Cell growth by colorimetric BrdU incorporation assay, DLD-1; type: cell-based; settings: Homo sapiens, 48 hours
Experimental: (§1) HT-29 and DLD-1 cells were cultured in McCoy and RPMI1640 media respectively, supplemented with 10% fetal bovine serum (FBS), 1% penicillin/streptomycin (P/S) and 50 μg/ml gentamycin. HT-115 were cultured in DMEM medium supplemented with 15% FBS and 1% P/S. Cells were maintained in a humidified incubator at 37° C., in the presence of 5% CO2.
(§2) For cell growth assays, single-cell suspensions were plated at 2×10^3 cells/well (4×10^3 cells/well for HT115) in 96-well culture dishes in medium containing 0.5% FBS and allowed to adhere. The non-adherent cells were then removed, and fresh medium containing 0.5% FBS was added into each well. Cells were cultured in the presence or absence of the specified substances. Each substance was dissolved as a 25 mM stock solution in culture medium containing 0.5% FBS, and the pH of each stock solution was adjusted to 7.4, if necessary, with NaOH. Substances were used at a final concentration ranging from 0.5 to 10 mM. Cell proliferation was determined by measuring the incorporation of 5-bromo-2′-deoxyuridine (BrdU) into DNA using a commercially available cell proliferation kit (Roche Diagnostics™, Monza, Italy). BrdU was added to the cell cultures during the last 6 hours of incubation, and the level of BrdU-positive cells was assessed after 48 h culture by enzyme-linked immunosorbent assay (ELISA).
(§3) Optical density (OD) was determined at 450 nm using an ELISA reader. Experiments were performed in triplicate and the results are reported as the mean±standard deviation (SD).

HT-29, HT-115 and DLD-1 = test: Colon cancer cell growth by BrdU assay, three human colon carcinoma cell lines; type: cell-based; settings: final concentration 10 mM, 48 h
Experimental: For this purpose, three human colon carcinoma cell lines (i.e. HT-29, HT-115 and DLD-1) were used. These cell types were selected on the basis of the cyclooxigenase-2 (COX-2) expression. Indeed, HT-115 cells express a biologically active COX-2, HT-29 cells express a non-functional COX-2 isoform, and DLD-1 are COX-2-deficient cells.
as §1, §2, §3

CC(C)Oc1ccc(N)cc1C(=O)O [compound 31, 5-amino-2-isopropoxybenzoic acid]
reporter gene activity, factor of increase relative to untreated cells (PPARγ [1]): two-fold; also recorded: about twice
induction of PPARγ protein levels quantified by western blot (PPARγ [2]): 2 fold
inhibition at 30000 µM (HT-29 STD cells [3]): 67 to 75%
apoptosis, epithelial cells identified by TUNEL (HT-29 STD cells [4]): 80%
inhibition at 500 µM (DLD-1 cells; 0.5 mM): 0%
inhibition at 1000 µM (DLD-1 cells; 1 mM): 0%
inhibition at 2500 µM (DLD-1 cells; 2.5 mM): 0%
inhibition at 5000 µM (DLD-1 cells; 5 mM): 8.8%
inhibition at 10000 µM (DLD-1 cells; 10 mM): 31.7%
cell growth inhibition (HT-29, HT-115 and DLD-1): significantly inhibited cell growth
